Measurements reported in patent publication US12673954B2 (BRISTOL-MYERS SQUIBB COMPANY, priority 2021, dated 2026).

Assays:
[1] = system: NF-κB pathway, THP1-Dual™ cells; experiment: STING reporter assay in THP1-Dual cells, NF-κB pathway (SEAP, QUANTI-Blue); assay type: cell-based, human; details: Homo sapiens, THP1-Dual, 20 h, THP1-Dual cells, 10% human plasma, 20 hours; SEAP; 100% activation = 100 μM cGAMP; read-out: NFkB (EC50 μM)
Procedure, shortened: (§1)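 THP-1-derived dual-reporter cells treated with serially diluted compounds (final top concentration 100 μM) for 20 h at 37° C. NF-κB read as SEAP via QUANTI-Blue at OD620; IRF read as Lucia luminescence via QUANTI-Luc after 5 min. 100% activation set by 100 μM cGAMP, baseline by DMSO.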

[2] = system: IRF pathway, THP1-Dual™ cells; experiment: STING reporter assay in THP1-Dual cells, IRF pathway (Lucia luciferase, QUANTI-Luc); assay type: cell-based, human; details: Homo sapiens, THP1-Dual, 20 h, THP1-Dual cells, 10% human plasma, 20 hours; Lucia luciferase; 100% activation = 100 μM cGAMP; read-out: IRF (EC50 μM)
Procedure, shortened: as §1

Compound | EC50 [1] [µM] | EC50 [2] [µM]
COC(=O)c1ccc(C)c2cc(CNC(=O)c3cnn4cccnc34)oc12 [EXAMPLE 31, Methyl 4-methyl-2-((pyrazolo[1,5-a]pyrimidine-3-carboxamido)methyl)benzofuran-7-carboxylate] | 1.6 | 1.1
COC(=O)c1ccc(OC)c2cc(CNC(=O)c3cnn4cccnc34)oc12 [EXAMPLE 33, Methyl 4-methoxy-2-((pyrazolo[1,5-a]pyrimidine-3-carboxamido)methyl)benzofuran-7-carboxylate] | 16 | 11
COC(=O)c1cc(F)cc2cc(CN3CCc4ccncc4C3=O)oc12 [EXAMPLE 36, Methyl 5-fluoro-2-((1-oxo-3,4-dihydro-2,7-naphthyridin-2(1H)-yl)methyl)benzofuran-7-carboxylate] | 4.1 | 3.6
COC(=O)c1cc(F)cc2cc(Cn3ccc4ncncc4c3=O)oc12 [EXAMPLE 37, Methyl 5-fluoro-2-((5-oxopyrido[4,3-d]pyrimidin-6(5H)-yl)methyl)benzofuran-7-carboxylate] | 12 | 11
COC(=O)c1cc(F)cc2cc(CNC(=O)c3cnn4ccc(OC)nc34)oc12 [EXAMPLE 40, Methyl 5-fluoro-2-((5-methoxypyrazolo[1,5-a]pyrimidine-3-carboxamido)methyl)benzofuran-7-carboxylate] | 3.2 | 2.1
COC(=O)c1cc(F)cc2cc(CNC(=O)c3cnccn3)oc12 [EXAMPLE 42, Methyl 5-fluoro-2-((pyrazine-2-carboxamido)methyl)benzofuran-7-carboxylate] | 3.6 | 4.1
COC(=O)c1cc(F)cc2cc(CN3Cc4ncncc4C3=O)oc12 [EXAMPLE 44, Methyl 5-fluoro-2-((5-oxo-5,7-dihydro-6H-pyrrolo[3,4-d]pyrimidin-6-yl)methyl)benzofuran-7-carboxylate] | 13 | 12
C=Cc1cc(C(=O)OC)c2oc(CNC(=O)c3cnn4cccnc34)cc2c1 [EXAMPLE 100, Methyl 2-((pyrazolo[1,5-a]pyrimidine-3-carboxamido)methyl)-5-vinylbenzofuran-7-carboxylate] | 2.2 | 2.5
COC(=O)c1cc(O)cc2cc(CN3CCc4ccncc4C3=O)oc12 [EXAMPLE 103, Methyl 5-hydroxy-2-((1-oxo-3,4-dihydro-2,7-naphthyridin-2(1H)-yl)methyl)benzofuran-7-carboxylate] | 23 | 25
COC(=O)c1cc(O)cc2cc(CN3Cc4ccncc4C3=O)oc12 [EXAMPLE 104, Methyl 5-hydroxy-2-((3-oxo-1,3-dihydro-2H-pyrrolo[3,4-c]pyridin-2-yl)methyl)benzofuran-7-carboxylate] | 37 | 63
COC(=O)c1cc(C#N)cc2cc(CNC(=O)c3cnn4cccnc34)oc12 [EXAMPLE 105, Methyl 5-cyano-2-((pyrazolo[1,5-a]pyrimidine-3-carboxamido)methyl)benzofuran-7-carboxylate] | 3.4 | 4.7
COC(=O)c1cc(C(F)(F)F)cc2cc(CNC(=O)c3cnn4cccnc34)oc12 [EXAMPLE 106, Methyl 2-((pyrazolo[1,5-a]pyrimidine-3-carboxamido)methyl)-5-(trifluoromethyl) benzofuran-7-carboxylate] | 1.1 | 0.75
COC(=O)c1cc(Cl)cc2c(C)c(CNC(=O)c3cnn4cccnc34)oc12 [EXAMPLE 115, Methyl 5-chloro-3-methyl-2-((pyrazolo[1,5-a]pyrimidine-3-carboxamido)methyl)benzofuran-7-carboxylate] | 0.82 | 0.6
COC(=O)c1cc(Cl)cc2c(C(F)(F)F)c(CNC(=O)c3cnn4cccnc34)oc12 [EXAMPLE 116, Methyl 5-chloro-2-((pyrazolo[1,5-a]pyrimidine-3-carboxamido)methyl)-3-(trifluoromethyl)benzofuran-7-carboxylate] | 3.1 | 2.9
COC(=O)c1cc(C)cc2c(Cl)c(CNC(=O)c3cnn4cccnc34)oc12 [EXAMPLE 117, Methyl 3-chloro-5-methyl-2-((pyrazolo[1,5-a]pyrimidine-3-carboxamido)methyl)benzofuran-7-carboxylate] | 0.28 | 0.2

The remaining lines, values ahead:

EC50 [1] [µM] | EC50 [2] [µM] | Compound
3.4 | 3.5 | COC(=O)c1ccc(C)c2cc(Cn3ccc4ccncc4c3=O)oc12 [EXAMPLE 32]
> 100 | 79 | COC(=O)c1ccc(O)c2cc(CNC(=O)c3cnn4cccnc34)oc12 [EXAMPLE 34, Methyl 4-hydroxy-2-((pyrazolo[1,5-a]pyrimidine-3-carboxamido)methyl)benzofuran-7-carboxylate]
0.77 | 0.53 | COC(=O)c1cc(F)cc2cc(CNC(=O)c3cnn4cccnc34)oc12 [EXAMPLE 35, Methyl 5-fluoro-2-((pyrazolo[1,5-a]pyrimidine-3 carboxamido)methyl)benzofuran-7-carboxylate]
2.5 | 2.3 | COC(=O)c1cc(F)cc2cc(Cn3ccc4ccncc4c3=O)oc12 [EXAMPLE 38, Methyl 5-fluoro-2-((1-oxo-2,7-naphthyridin-2(1H)-yl)methyl)benzofuran-7-carboxylate]
3.6 | 4 | COC(=O)c1cc(F)cc2cc(Cn3cnc4ccncc4c3=O)oc12 [EXAMPLE 39, Methyl 5-fluoro-2-((4-oxopyrido[4,3-d]pyrimidin-3(4H)-yl)methyl)benzofuran-7-carboxylate]
1.3 | > 33 | COC(=O)c1cc(F)cc2cc(CNC(=O)c3cnc4cccnn34)oc12 [EXAMPLE 41, Methyl 5-fluoro-2-((imidazo[1,2-b]pyridazine-3-carboxamido)methyl)benzofuran-7-carboxylate]
24 | 19 | COC(=O)c1cc(F)cc2cc(CN3Cc4ccncc4C3=O)oc12 [EXAMPLE 43, Methyl 5-fluoro-2-((3-oxo-1,3-dihydro-2H-pyrrolo[3,4-c]pyridin-2-yl)methyl)benzofuran-7-carboxylate]
0.99 | 0.98 | COC(=O)c1cc(F)cc2cc(C(C)NC(=O)c3cnn4cccnc34)oc12 (centres unmarked) [EXAMPLE 45, Methyl-5-fluoro-2-(1-(pyrazolo[1,5-a]pyrimidine-3-carboxamido)ethyl)benzofuran-7-carboxylate]
1.5 | 1.5 | COC(=O)c1cc(F)cc2cc([C@H](C)NC(=O)c3cnn4cccnc34)oc12 [EXAMPLE 46, Methyl (S)-5-fluoro-2-(1-(pyrazolo[1,5-a]pyrimidine-3-carboxamido)ethyl)benzofuran-7-carboxylate]
10 | 12 | CCc1cc(C(=O)OC)c2oc(CNC(=O)c3cnn4cccnc34)cc2c1 [EXAMPLE 101, Methyl 5-ethyl-2-((pyrazolo[1,5-a]pyrimidine-3-carboxamido)methyl)benzofuran-7-carboxylate]
3 | 2.5 | COC(=O)c1cc(OC)cc2cc(CNC(=O)c3cnn4cccnc34)oc12 [EXAMPLE 102, Methyl 5-methoxy-2-((pyrazolo[1,5-a]pyrimidine-3-carboxamido)methyl)benzofuran-7-carboxylate]
2 | 1.4 | COC(=O)c1c(F)ccc2cc(CNC(=O)c3cnn4cccnc34)oc12 [EXAMPLE 107, Methyl 6-fluoro-2-((pyrazolo[1,5-a]pyrimidine-3-carboxamido)methyl)benzofuran-7-carboxylate]
31 | 21 | COC(=O)c1c(C)ccc2cc(CNC(=O)c3cnn4cccnc34)oc12 [EXAMPLE 108, Methyl 6-methyl-2-((pyrazolo[1,5-a]pyrimidine-3-carboxamido)methyl)benzofuran-7-carboxylate]
1.1 | 0.9 | COC(=O)c1c(O)ccc2cc(CNC(=O)c3cnn4cccnc34)oc12 [EXAMPLE 109, Methyl 6-hydroxy-2-((pyrazolo[1,5-a]pyrimidine-3-carboxamido)methyl)benzofuran-7-carboxylate]
0.27 | 0.22 | COC(=O)c1cc(F)cc2c(Cl)c(CNC(=O)c3cnn4cccnc34)oc12 [EXAMPLE 110, Methyl 3-chloro-5-fluoro-2-((pyrazolo[1,5-a]pyrimidine-3-carboxamido)methyl)benzofuran-7-carboxylate]
1.4 | 1.2 | COC(=O)c1cc(F)cc2c(Cl)c([C@H](C)NC(=O)c3cnn4cccnc34)oc12 [EXAMPLE 111, Methyl (S)-3-chloro-5-fluoro-2-(1-(pyrazolo[1,5-a]pyrimidine-3-carboxamido)ethyl)benzofuran-7-carboxylate]
0.26 | 0.2 | COC(=O)c1cc(Cl)cc2c(Cl)c(CNC(=O)c3cnn4cccnc34)oc12 [EXAMPLE 112, Methyl 3,5-dichloro-2-((pyrazolo[1,5-a]pyrimidine-3-carboxamido)methyl)benzofuran-7-carboxylate]
0.51 | 0.32 | COC(=O)c1cc(Cl)cc2c(Cl)c(CNC(=O)c3cncc4cccnc34)oc12 [EXAMPLE 113, methyl 2-((1,6-naphthyridine-8-carboxamido)methyl)-3,5-dichlorobenzofuran-7-carboxylate]
0.89 | 0.97 | COC(=O)c1cc(Cl)cc2c(Cl)c([C@H](C)NC(=O)c3cnn4cccnc34)oc12 [EXAMPLE 114, Methyl (S)-3,5-dichloro-2-(1-(pyrazolo[1,5-a]pyrimidine-3-carboxamido)ethyl)benzofuran-7-carboxylate]
